{"source": "paper PMC11999338", "about": "“Factor XI localization in human deep venous thrombus and function of activated factor XI on venous thrombus formation and hemostasis” (Research and Practice in Thrombosis and Haemostasis, 2025)", "key": {"[1]": {"tested_on": "thrombi on the collagen surface", "assay": "Ex vivo rabbit blood perfusion in flow chamber on collagen surface (70/s)", "type": "cell-based", "settings": "rabbit blood 75 minutes after oral ONO-1600586 50 mg/kg or rivaroxaban 15 mg/kg, shear rate 70/s", "description": "Blood from rabbits 75 minutes postadministration of a solvent as a control (n = 5), a FXIa inhibitor (ONO-1600586, 50 mg/kg, n = 5), or a FXa inhibitor (rivaroxaban, 15 mg/kg, n = 5) was collected using 21-gauge needles into plastic syringes containing corn trypsin inhibitor (Molecular Innovations; final concentration 20 μg/mL) and a specific FXa inhibitor, Arixtra (Organon Sanofi-Synthelabo, final concentration 6 μg/mL). Anticoagulated whole blood was stored at room temperature and used for perfusion studies within 1 hour of collection. Next, mepacrine (quinacrine dihydrochloride, Sigma-Aldrich, final concentration 5 μM) was added to the blood before perfusion for platelet labeling, which enables the visualization of platelet-surface interaction through epifluorescence videomicroscopy. Collagen from the horse tendon (Collagen Reagent HORM, Takeda Pharmaceutical, 20 μg/mL) was immobilized on glass coverslips (24 × 50 mm) in parallel-plate flow chambers, as previously described. Blood samples were perfused through the chamber using a syringe pump (KDS100, KD Scientific Inc) at a constant flow rate (15 mL/h) to achieve wall shear rates of 70/s. Platelets interacting with the immobilized collagen were visualized using an inverted stage epifluorescence microscope (IX71, OLYMPUS). Images were captured at 3, 6, and 9 minutes after perfusion with a photosensitive color CCD camera (DP70, Olympus), and surface covering areas were semiquantified using a morphometric analysis system (WinROOF, Mitani).\nAfter perfusion, coverslips were immediately fixed in 95% alcohol for 1 hour at room temperature, stained using antibodies for fibrin (Millipore), and faintly counterstained with Meyer’s hematoxylin. […] Finally, the number of attached cells with multilobulated nuclei was counted as the neutrophil number in 5 fields under a 20× objective lens and expressed as the number of neutrophils per mm^2."}, "[2]": {"tested_on": "skin bleeding", "assay": "Rabbit skin bleeding time and volume", "type": "in vivo", "settings": "rabbits; for bleeding time / bleeding volume: skin incision 90 minutes after oral administration, ONO-1600586 5, 15, 50 mg/kg, rivaroxaban 1.5, 5, 15 mg/kg", "description": "The protocols of the venous thrombosis and skin bleeding models in rabbits were as follows (Supplementary Figure 2). First, fasting rabbits were orally administered a solvent as a control (n = 10), a FXIa inhibitor (ONO-1600586, 5 mg/kg, n = 10; 15 mg/kg, n = 10; and 50 mg/kg, n = 11), or a FXa inhibitor (rivaroxaban, 1.5 mg/kg, 5 mg/kg, and 15 mg/kg, n = 10 each) using a Nelaton catheter of 5 mm diameter (IZUMO Health Co, Ltd) 90 minutes before thrombus formation. […] Additional anesthesia with one-third amount of the above-mentioned mixture of drugs was administered 80 minutes after the first injection, and all surgical operations proceeded under aseptic conditions. Ninety minutes after administering the solvent, rivaroxaban (1.5, 5, and 15 mg/kg), and ONO-1600586 (5, 15, and 50 mg/kg), skin bleeding was induced using 2 lines of 3 cm length incisions on both legs of the rabbit. Next, wet Kimwipes (Kimberly-Clark Corp) were placed on the injured lesions, and the bleeding time was measured. To measure the bleeding volume, we collected the Kimwipes into a falcon tube filled with 20 mL of saline each, 1 to 2 minutes for 30 minutes, and then removed the Kimwipes. The collected blood was centrifuged at 900 × g for 5 minutes at room temperature, and the supernatant was discarded. One milliliter of distilled water was added to the pellet and then hemolyzed. The bleeding volume was estimated using a spectrophotometer at 540 nm (SpectraMax 190 Microplate Reader, Molecular Devices, LLC). A standard curve was generated through the sequential dilution of rabbit blood. Finally, the number of erythrocytes was measured using a hematology analyzer (XP-300, Sysmex)."}, "[3]": {"tested_on": "jugular vein thrombus", "assay": "Rabbit model of jugular vein thrombosis by endothelial denudation and luminal stenosis", "type": "in vivo", "settings": "rabbits; for venous thrombus weight compared with control: 90 minutes before thrombus formation, thrombus weighed after 3 hours", "description": "The protocols of the venous thrombosis and skin bleeding models in rabbits were as follows (Supplementary Figure 2). First, fasting rabbits were orally administered a solvent as a control (n = 10), a FXIa inhibitor (ONO-1600586, 5 mg/kg, n = 10; 15 mg/kg, n = 10; and 50 mg/kg, n = 11), or a FXa inhibitor ([…], n = 10 each) using a Nelaton catheter of 5 mm diameter (IZUMO Health Co, Ltd) 90 minutes before thrombus formation. […] Additional anesthesia with one-third amount of the above-mentioned mixture of drugs was administered 80 minutes after the first injection, and all surgical operations proceeded under aseptic conditions. Briefly, 90 minutes postadministration of the solvent, ONO-1600586, or rivaroxaban, venous thrombi were induced in rabbit jugular veins through endothelial denudation using a 3F balloon catheter (Edwards Lifesciences), according to a previous study, and the method was modified to induce luminal stenosis. A 2 mm polyethylene tube was placed outside the vessel. Both the jugular vein and polyethylene tube were ligated, and the tube was removed (Supplementary Figure 3). Next, 3 hours after thrombus formation and stenosis, the rabbits were infused with heparin (500 U/kg, i.v.) and then euthanized with an overdose of pentobarbital (60 mg/kg, i.v.). Subsequently, the animals were perfused with 50 mL phosphate-buffered saline (0.01 mol/L), and the jugular veins were sampled. The venous thrombi were immediately removed from the venous wall and weighed. […] Paraffin-embedded sections (4 μm thick) of the rabbit jugular vein thrombus were stained with HE and morphologically assessed. Consecutive sections of thrombi were immunohistochemically stained with antibodies against fibrin (Millipore) and GPIIb/IIIa (Affinity Biologicals Inc). Images were digitized using a photosensitive color CCD camera (BX51, OLYMPUS). Finally, the area of the red-stained erythrocytes in HE staining and the immunopositive areas for fibrin and GPIIb/IIIa were semiquantified using a color imaging morphometry system (WinROOF, Mitani)."}}, "note": "“Also recorded” adds a separate entry of the source.", "data": [{"smiles": "O=C(NC[C@H]1CN(c2ccc(N3CCOCC3=O)cc2)C(=O)O1)c1ccc(Cl)s1", "note": "[rivaroxaban]", "values": [{"measurement": "fibrin formation (fibrin-immunopositive area) in the flow chamber", "setting": "[1]", "result": "markedly decreased; also recorded: Absence or little fibrin formation"}, {"measurement": "neutrophil attachment on the thrombus", "setting": "[1]", "result": "did not affect"}, {"measurement": "surface covering areas", "setting": "[1]; 3, 6, 9 minutes", "result": "did not differ"}, {"measurement": "bleeding time compared with the control", "setting": "[2]; 15 mg/kg oral", "result": "significantly prolonged"}, {"measurement": "bleeding volume compared with the control", "setting": "[2]; 15 mg/kg oral", "result": "increased"}, {"measurement": "bleeding time", "setting": "[2]", "result": "prolonged bleeding time"}, {"measurement": "bleeding volume", "setting": "[2]", "result": "increased bleeding volume dose-dependently"}, {"measurement": "bleeding time", "setting": "[2]; listed as Rivaroxaban", "result": "dose-dependently prolonged"}, {"measurement": "bleeding volume", "setting": "[2]; listed as Rivaroxaban", "result": "increased"}, {"measurement": "venous thrombus weight compared with control", "setting": "[3]; 1 mg/kg oral (so in the source)", "result": "tended to reduce"}, {"measurement": "venous thrombus weight compared with control", "setting": "[3]; 5 mg/kg oral", "result": "tended to reduce"}, {"measurement": "venous thrombus weight compared with control", "setting": "[3]; 15 mg/kg oral, 15 mg/kg", "result": "significantly reduced; also recorded: similarly reduced"}, {"measurement": "immunopositive area of fibrin in venous thrombus", "setting": "[3]; compared with control and ONO-1600586 groups", "result": "tended to be smaller"}, {"measurement": "areas of erythrocytes or immunopositive areas of fibrin or GPIIb/IIIa in venous thrombus", "setting": "[3]; histology of jugular vein thrombus, comparison among groups", "result": "did not differ"}]}]}
